Laboratory results from patent US20210353590A1 (priority 2020, published 2021).
≈ marks a conversion by molar mass, not a printed value.

Columns and labels:
[1] = Solubility analysis by saturated solution method; settings: 37±1° C., 24 hrs, 100 rpm
Experimental: After that, suspension was filtered and 0.1 ml of the filtrate was diluted with water up to 1 ml. The contents in the aliquot were measured by HPLC method (Sajeeb BK, 2015). All measurements were carried out in triplicate (n=3).

[2] = Pharmacokinetic analysis; settings: rat
Experimental: The photoperiod of 12 h was maintained. […] 120 male rats were randomly divided into 30 groups of 4 animals each corresponding to the time points of blood collection. […] Rats were fasted (Approximately 4 h) before administration of drug. On the other hand, AND at the dose of 10-mg/kg was administered intravenously (i.v.) for comparative studies. Plasma concentration data was analyzed and computed for pharmacokinetic parameters. The following pharmacokinetic parameters were assessed: ke (h), t½ (h), Cmax (μg/ml), AUClast (h.μg/ml), AUCinf (h.μg/ml), MRT (h), CLTotal (L/h), Vd (L) and F%.

[3] = after 2 h, simulated intestinal fluid pH 7.2, 37±2° C., 50 rpm, 100 mg AND or equivalent

**Q.** With `C=C1CC[C@@H]2[C@](C)(CO)[C@H](O)CC[C@@]2(C)[C@@H]1C/C=C1/C(=O)OC[C@H]1O` [Andrographolide] as the compound, how does the “solubility in aqueous phase” value [1] read?
**A.** Its value is 6.39 ± 0.47 µg/mL (≈ 18.2 µM).

**Q.** What about the AUC inf ([2]; Oral, 100 mg/kg) of the same compound?
**A.** Its AUC inf is 1845.58 ± 305.77 µg·h/mL.

**Q.** What about the AUC last ([2]; Oral, 100 mg/kg) of the same compound?
**A.** The AUC last was 1223.6 ± 143.09 µg·h/mL.

**Q.** What about the CLTotal ([2]; Oral, 100 mg/kg) of the same compound?
**A.** The CLTotal was 0.055 ± 0.008 L/h.

**Q.** What about the Cmax ([2]; Oral, 100 mg/kg) of the same compound?
**A.** Its Cmax is 239.6 ± 75.37 µg/mL.

**Q.** And the Vd ([2]; Oral, 100 mg/kg)?
**A.** The Vd was 0.468 ± 0.060 L.

**Q.** And the t1/2 ([2]; Oral, 100 mg/kg)?
**A.** Its t1/2 is 5.92 ± 0.21 h.

**Q.** What about the tmax ([2]; Oral, 100 mg/kg) of the same compound?
**A.** The tmax was 2 h.

**Q.** What about the “F (bioavailability)” value ([2]; Oral, 100 mg/kg, versus AND i.v. 10 mg/kg) of the same compound?
**A.** Its value is 15.87±3.84%.

**Q.** What about the AUC inf ([2]; i.v., 10 mg/kg) of the same compound?
**A.** Its AUC inf is 891.08 ± 179.75 µg·h/mL.

**Q.** And the AUC last ([2]; i.v., 10 mg/kg)?
**A.** Its AUC last is 801.14 ± 181.07 µg·h/mL.

**Q.** And the CLTotal ([2]; i.v., 10 mg/kg)?
**A.** Its CLTotal is 0.011 ± 0.002 L/h.

**Q.** What about the MRT ([2]; i.v., 10 mg/kg) of the same compound?
**A.** Its MRT is 1.11 ± 0.04 h.

**Q.** And the Vd ([2]; i.v., 10 mg/kg)?
**A.** Its Vd is 0.013 ± 0.003 L.

**Q.** What about the t1/2 ([2]; i.v., 10 mg/kg) of the same compound?
**A.** Its t1/2 is 0.859 ± 0.031 h.

**Q.** What about the MRT ([2]; in vivo, po, 100 mg/kg) of the same compound?
**A.** The MRT was 1.49 ± 0.0.085 h.

**Q.** What about the release [3] of the same compound?
**A.** The release was 27.89±1.32%.
